Assay [1] is described as follows: HeLa cell cytotoxicity, dose response, cytotoxicity control, CellTiter-Glo luminescence, dry powder, set 2 (AID 720593). Type of assay: functional, cell-based.
In assay [2] the target is T1, Serine/threonine-protein phosphatase (Candida dubliniensis (strain CD36 / CBS 7987 / NCPF 3949 / NRRLY-17841) (Yeast), UniProt B9W6M3).
T1 sequence (B9W6M3 whole entry): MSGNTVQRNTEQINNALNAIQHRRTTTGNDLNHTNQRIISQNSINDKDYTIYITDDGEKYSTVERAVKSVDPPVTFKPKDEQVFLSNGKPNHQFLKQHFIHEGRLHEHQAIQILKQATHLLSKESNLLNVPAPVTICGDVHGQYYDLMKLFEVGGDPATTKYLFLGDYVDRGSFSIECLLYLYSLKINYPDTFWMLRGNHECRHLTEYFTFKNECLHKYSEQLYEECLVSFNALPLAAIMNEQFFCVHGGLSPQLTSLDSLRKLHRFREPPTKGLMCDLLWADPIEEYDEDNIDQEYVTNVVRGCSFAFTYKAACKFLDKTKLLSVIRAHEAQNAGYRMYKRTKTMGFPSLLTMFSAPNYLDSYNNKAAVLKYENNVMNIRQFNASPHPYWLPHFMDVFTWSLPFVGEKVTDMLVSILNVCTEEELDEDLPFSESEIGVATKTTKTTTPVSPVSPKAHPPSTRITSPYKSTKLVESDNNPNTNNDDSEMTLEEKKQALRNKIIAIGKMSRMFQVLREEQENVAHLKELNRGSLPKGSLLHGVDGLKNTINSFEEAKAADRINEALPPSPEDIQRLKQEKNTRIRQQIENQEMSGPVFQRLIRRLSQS
Briefly: calcineurin pathway inhibitors in yeast reporter, dose response, S. cerevisiae, CDRE-lacZ, luminescence, secondary (AID 2388).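 Note: yeast reporter cells carrying a calcineurin-responsive lacZ construct stimulated with calcium chloride; luminescent beta-galactosidase reporter signal in whole cells rather than isolated phosphatase activity; potency for inhibition where a drop in reporter signal means calcineurin blockade.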 The assay is classed as functional, cell-based.

Assay [3] has as its target Protein-tyrosine kinase 2-beta (Homo sapiens, UniProt Q14289).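 Note: potency of inhibitors of PYK2 kinase phosphorylation of poly-GT substrate.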
Assay [4] addresses T2, Bcl-2-like protein 10 (Homo sapiens, UniProt Q9HD36).
T2 sequence (Q9HD36 whole entry): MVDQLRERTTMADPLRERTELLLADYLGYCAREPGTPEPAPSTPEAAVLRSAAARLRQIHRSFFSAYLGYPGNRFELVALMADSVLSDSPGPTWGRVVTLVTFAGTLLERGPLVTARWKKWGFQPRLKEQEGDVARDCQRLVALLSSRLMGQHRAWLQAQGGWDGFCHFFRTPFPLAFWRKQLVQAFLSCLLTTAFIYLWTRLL
Briefly: displacers of TR3 peptide from Bcl-B, primary screen, selectivity assay for Bfl-1 inhibitor project, biochemical, fluorescence polarization, FITC-TR3 peptide (AID 748).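 Note: fluorescence polarization from a fluorescein-labelled TR3 peptide binding purified Bcl-B.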

The nature of assay [5]: Shn3 3'UTR reporter inhibitors, dose response, cell-based, Clone20 osteoblasts, firefly luciferase, cherry-picked (AID 624132).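 Note: firefly luciferase luminescence from reporter carrying the Shn3 3'UTR in osteoblasts.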 Type of assay: functional.
The test system of assay [6] is HEK293. Briefly: HEK cell cytotoxicity by LDH release, dose response, cytotoxicity control for IDE activator project, fluorescence, HEK cells (AID 588440).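 Note: cytotoxicity by LDH release measuring loss of membrane integrity.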 The following applies: Homo sapiens. The assay is classed as functional, cell-based.
In assay [7] the test system is BJ. Briefly: cells. Type of assay: functional, cell-based. The conditions noted are these: Homo sapiens.
For assay [8], the target named is T3, Long-chain-fatty-acid--AMP ligase FadD28 (Mycobacterium tuberculosis, UniProt P9WQ59).
T3 sequence (P9WQ59 whole entry): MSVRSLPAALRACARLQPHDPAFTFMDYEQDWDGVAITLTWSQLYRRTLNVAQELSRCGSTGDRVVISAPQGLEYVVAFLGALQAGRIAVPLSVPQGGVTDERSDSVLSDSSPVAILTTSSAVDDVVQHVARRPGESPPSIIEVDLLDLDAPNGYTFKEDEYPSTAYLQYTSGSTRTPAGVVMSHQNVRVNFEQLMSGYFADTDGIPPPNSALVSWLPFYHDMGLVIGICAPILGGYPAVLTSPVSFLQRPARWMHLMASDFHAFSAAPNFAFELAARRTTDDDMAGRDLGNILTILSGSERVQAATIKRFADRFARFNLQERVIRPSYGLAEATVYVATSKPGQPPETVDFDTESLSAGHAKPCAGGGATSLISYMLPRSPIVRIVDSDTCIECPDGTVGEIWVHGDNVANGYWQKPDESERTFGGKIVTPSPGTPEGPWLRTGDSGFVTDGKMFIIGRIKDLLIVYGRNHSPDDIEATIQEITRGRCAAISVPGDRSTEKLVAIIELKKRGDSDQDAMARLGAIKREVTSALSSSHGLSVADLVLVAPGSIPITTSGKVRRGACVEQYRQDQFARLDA
Briefly: Fluorescence polarization aasay to screen for inhibitors that compete for the binding of FadD28 to a bisubstrate Measured in Biochemical System Using Plate Reader - 2147-01_Inhibitor_Dose_CherryPick_Activity. Type of assay: functional, Mycobacterium tuberculosis H37Rv. On the technique in general: Fluorescence polarisation rises when a labelled molecule tumbles more slowly, as on binding a larger partner.

Assay [9] deals with Mitogen-activated protein kinase kinase kinase kinase 5 (Homo sapiens, UniProt Q9Y4K4). The assay is classed as functional.
Mitogen-activated protein kinase kinase kinase kinase 5, sequence (Q9Y4K4 whole entry): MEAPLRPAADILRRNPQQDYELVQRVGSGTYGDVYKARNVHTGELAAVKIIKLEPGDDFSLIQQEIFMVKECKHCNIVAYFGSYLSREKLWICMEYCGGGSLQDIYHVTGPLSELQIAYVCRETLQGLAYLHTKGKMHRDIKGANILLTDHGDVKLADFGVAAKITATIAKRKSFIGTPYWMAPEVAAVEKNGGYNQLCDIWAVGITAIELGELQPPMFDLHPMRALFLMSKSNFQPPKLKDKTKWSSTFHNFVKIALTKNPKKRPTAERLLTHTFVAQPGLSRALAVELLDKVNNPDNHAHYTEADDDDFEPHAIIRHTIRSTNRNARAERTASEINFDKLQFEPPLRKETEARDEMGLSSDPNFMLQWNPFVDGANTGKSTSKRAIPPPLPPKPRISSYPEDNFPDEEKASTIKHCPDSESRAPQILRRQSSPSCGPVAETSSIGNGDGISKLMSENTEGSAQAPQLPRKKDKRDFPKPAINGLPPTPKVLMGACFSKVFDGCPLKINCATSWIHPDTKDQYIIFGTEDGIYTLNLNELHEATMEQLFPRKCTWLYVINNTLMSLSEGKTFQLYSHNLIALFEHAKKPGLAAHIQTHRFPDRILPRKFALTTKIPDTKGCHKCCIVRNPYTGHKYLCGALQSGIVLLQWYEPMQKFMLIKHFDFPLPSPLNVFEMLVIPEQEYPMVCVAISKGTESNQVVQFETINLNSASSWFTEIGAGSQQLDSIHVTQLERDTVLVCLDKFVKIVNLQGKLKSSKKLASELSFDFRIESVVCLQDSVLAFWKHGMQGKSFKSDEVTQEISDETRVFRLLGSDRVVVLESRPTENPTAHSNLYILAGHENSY
Assay [10] deals with Tyrosine-protein kinase SYK (Homo sapiens, UniProt P43405). The assay is classed as functional.
The target of assay [11] is Platelet-derived growth factor receptor beta (Homo sapiens, UniProt P09619). Type of assay: functional.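 Note: value comes from a kinome panel, with PDGFRB tested as one panel member.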
Platelet-derived growth factor receptor beta, sequence (P09619 whole entry): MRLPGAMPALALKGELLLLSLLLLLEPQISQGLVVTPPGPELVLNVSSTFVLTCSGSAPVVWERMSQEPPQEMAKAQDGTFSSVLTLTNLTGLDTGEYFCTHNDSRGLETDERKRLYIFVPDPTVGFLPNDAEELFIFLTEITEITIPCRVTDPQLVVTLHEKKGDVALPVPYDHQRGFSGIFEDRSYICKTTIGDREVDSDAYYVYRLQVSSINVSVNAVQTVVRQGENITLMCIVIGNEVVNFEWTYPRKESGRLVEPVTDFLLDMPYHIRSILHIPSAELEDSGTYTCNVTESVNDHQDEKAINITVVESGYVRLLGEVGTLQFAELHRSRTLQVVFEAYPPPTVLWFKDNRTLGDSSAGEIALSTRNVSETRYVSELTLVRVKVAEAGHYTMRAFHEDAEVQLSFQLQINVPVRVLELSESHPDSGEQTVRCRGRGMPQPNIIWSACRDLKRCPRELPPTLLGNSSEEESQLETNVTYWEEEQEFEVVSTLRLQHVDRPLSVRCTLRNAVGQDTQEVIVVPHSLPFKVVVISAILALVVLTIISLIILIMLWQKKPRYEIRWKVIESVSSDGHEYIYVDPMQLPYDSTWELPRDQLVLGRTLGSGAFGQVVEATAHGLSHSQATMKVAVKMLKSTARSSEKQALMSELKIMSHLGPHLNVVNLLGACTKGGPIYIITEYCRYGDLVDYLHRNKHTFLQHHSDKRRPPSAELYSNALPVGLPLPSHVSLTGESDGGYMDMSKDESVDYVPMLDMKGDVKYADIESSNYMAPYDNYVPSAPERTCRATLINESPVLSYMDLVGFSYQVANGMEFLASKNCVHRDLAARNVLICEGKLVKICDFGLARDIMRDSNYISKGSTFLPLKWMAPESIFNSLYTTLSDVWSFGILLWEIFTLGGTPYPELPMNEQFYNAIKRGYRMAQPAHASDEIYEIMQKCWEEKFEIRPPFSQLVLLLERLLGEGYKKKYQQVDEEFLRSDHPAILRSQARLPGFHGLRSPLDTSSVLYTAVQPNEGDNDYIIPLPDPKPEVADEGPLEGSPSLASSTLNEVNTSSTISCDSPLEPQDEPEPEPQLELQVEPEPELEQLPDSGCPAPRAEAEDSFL

Molecules are shown by their SMILES. Calls of active or inactive are those of the source.

Protein-tyrosine kinase 2-beta, sequence (Q14289 whole entry): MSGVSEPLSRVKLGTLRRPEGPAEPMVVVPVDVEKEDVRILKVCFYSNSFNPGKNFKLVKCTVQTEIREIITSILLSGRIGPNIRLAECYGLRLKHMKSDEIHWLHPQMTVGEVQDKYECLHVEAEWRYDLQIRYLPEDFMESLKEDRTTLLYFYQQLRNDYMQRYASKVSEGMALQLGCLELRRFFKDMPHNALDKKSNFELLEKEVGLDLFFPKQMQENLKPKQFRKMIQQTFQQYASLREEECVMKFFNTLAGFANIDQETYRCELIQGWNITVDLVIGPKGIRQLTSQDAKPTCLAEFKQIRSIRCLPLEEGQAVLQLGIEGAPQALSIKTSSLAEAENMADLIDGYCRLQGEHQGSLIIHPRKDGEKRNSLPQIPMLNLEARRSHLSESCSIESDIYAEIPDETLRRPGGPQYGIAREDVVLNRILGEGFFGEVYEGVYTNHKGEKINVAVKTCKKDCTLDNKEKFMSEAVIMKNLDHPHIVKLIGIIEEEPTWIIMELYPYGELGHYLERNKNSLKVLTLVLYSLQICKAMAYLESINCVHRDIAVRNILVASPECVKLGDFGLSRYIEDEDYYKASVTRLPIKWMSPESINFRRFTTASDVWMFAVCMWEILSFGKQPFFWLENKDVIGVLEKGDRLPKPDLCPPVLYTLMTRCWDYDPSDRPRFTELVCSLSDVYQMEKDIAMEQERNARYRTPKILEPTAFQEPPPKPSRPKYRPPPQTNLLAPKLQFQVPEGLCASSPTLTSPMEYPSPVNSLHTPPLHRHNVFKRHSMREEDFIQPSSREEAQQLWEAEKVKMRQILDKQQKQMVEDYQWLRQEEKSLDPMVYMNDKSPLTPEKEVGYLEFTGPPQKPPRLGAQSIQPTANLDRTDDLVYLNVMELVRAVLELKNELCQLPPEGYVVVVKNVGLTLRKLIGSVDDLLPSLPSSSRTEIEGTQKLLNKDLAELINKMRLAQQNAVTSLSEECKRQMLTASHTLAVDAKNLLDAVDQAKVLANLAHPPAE

With `CC(C)CC(=O)NC(c1cccs1)c1ccc2cccnc2c1O` (configuration not stated), in assay [1], the half-maximal activity concentration (AC50) (commonly the concentration giving half of the maximal activity seen) is 20.3 µM (active). Besides, the EC50 (usually the midpoint of the concentration-response curve) in assay [2] was > 180 µM (inactive).
Turning to `CCOC(=O)c1ccc(NC2=CC(=O)C(=O)c3ccccc32)cc1`, the values for the IC50 in assay [3] and in assay [4] were > 69.5 µM (not active) and 60.7 µM (inactive), respectively.
Take `OC(CNCCC1C=Nc2ccccc21)Cn1c2ccc(Cl)cc2c2cc(Cl)ccc21` (configuration not stated): in assay [5], the AC50 was 5.11 µM (active). For the same molecule, the IC50 (commonly the midpoint of a concentration-inhibition curve) in [6] was 10.2 µM (inactive). In addition, the EC50 in assay [7] is > 75 µM (not active).
In the case of `CCCCCCCCCCCCCCCC[N+](C)(C)C`, the AC50 in [8] is 12.7 µM (active).
Take `NC1CCC(Nc2nc(Cl)cc(-c3c[nH]c4ncccc34)n2)CC1` (configuration not stated): the Ki – broadly, the dissociation constant of the complex between target and ligand, obtained from inhibition or displacement – is 0.0501 µM (active) in assay [9] and > 1.58 µM (inactive) in [10]. Also, in assay [9], the pKi (as a rule, the negative decadic logarithm of the Ki, by convention in mol/L) stood at 7.3.
For the molecule `O=C(O)C1CN(Cc2ccc(OCc3ccccc3)cc2Cl)C1`, the Ki in assay [11] was > 2 µM (inactive).

(Values after ChEMBL document CHEMBL1201862, “PubChem BioAssay data set” (2004).)
